Results as given in patent publication US7288543B2, “Opioid receptor antagonists” (Eli Lilly and Company, priority 2004, dated 2007).

Legend:
Type in all cases: biochemical
[1] = target: T1, cloned human mu opioid receptor (Homo sapiens, UniProt P35372); experiment: GTP-γ-S binding assay (SPA), antagonist mode, mu; conditions: functional antagonist potency; membranes with cloned human mu receptor; agonist DAMGO 1 micromolar; Cheng-Prusoff
T1 construct: expressed in transfected cells
Experimental: (§1) The functional antagonist potency (Kb) of the sample compounds was determined using the GTPγS binding assay. GTPgS—based functional assays provide an in vitro measure of the activity of opioid agonists and antagonists. Opioid reference compounds or test compound are incubated with membrane homogenate from cells expressing the cloned human mu, kappa or delta opioid receptor and radiolabeled [35S]GTPgS. If the compound activates the opioid receptor, an increase in the binding of radiolabeled GTPgS is observed. […] These tests provide an in vitro measurement of the activity of the compound at human opioid receptors.
(§2) An SPA-based GTP-γ-S assay format was developed based on previous opioid (Emmerson et al., J. Pharm Exp Ther 278,1121,1996; Horng et al., Society for Neuroscience Abstracts, 434.6, 2000) and muscarinic (DeLapp et al., JPET 289, 946, 1999) assay formats. Membranes were resuspended in 20 mM HEPES, 100 mM NaCl, 5 mM MgCl2, 1 mM DTT, and 1 mM EDTA. Fifty (50) […] of GTP-γ-[35S], compound, membrane suspension (20 microgram/well), and wheat germ agglutinin coated SPA beads (1 mg/well) were added to clear bottom 96 well assay plates. GDP ([…]) was added to the membrane solution prior to addition to the assay plates. Plates were sealed and incubated for four hours at room temperature then placed in a refrigerator overnight to allow the beads to settle. Signal stability at 4° C. was determined to be >60 hours. Plates were warmed to room temperature and counted in a Wallac Microbeta scintillation counter. For antagonist assays, specific agonists were added at the following concentrations: (MOR) DAMGO 1 micromolar, (DOR) DPDPE 30 nM, (KOR) U69593 300 nM. Kb's were determined by Cheng-Prusoff equation (see Cheng and Prusoff, Biochem. Pharmacol. 22, 3099, 1973).

[2] = target: T2, cloned human delta opioid receptor (Homo sapiens, UniProt P41143); experiment: GTP-γ-S binding assay (SPA), antagonist mode, delta; conditions: functional antagonist potency; membranes with cloned human delta receptor; agonist DPDPE 30 nM; Cheng-Prusoff
T2 construct: expressed in transfected cells
Experimental: as §1, §2

[3] = target: T3, cloned human kappa opioid receptor (Homo sapiens, UniProt P41145); experiment: GTP-γ-S binding assay (SPA), antagonist mode, kappa; conditions: functional antagonist potency; membranes with cloned human kappa receptor; agonist U69593 300 nM; Cheng-Prusoff
T3 construct: expressed in transfected cells
Experimental: as §1, §2

T2 sequence (P41143 whole entry): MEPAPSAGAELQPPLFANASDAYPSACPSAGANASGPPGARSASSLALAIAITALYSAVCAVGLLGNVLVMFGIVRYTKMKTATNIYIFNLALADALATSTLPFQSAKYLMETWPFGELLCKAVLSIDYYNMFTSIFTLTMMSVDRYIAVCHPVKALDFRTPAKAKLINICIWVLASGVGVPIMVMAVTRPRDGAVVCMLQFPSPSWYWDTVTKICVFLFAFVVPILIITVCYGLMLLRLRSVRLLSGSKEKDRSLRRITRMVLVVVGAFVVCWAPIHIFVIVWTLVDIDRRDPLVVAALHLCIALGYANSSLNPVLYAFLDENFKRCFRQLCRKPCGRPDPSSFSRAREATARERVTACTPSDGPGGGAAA
T1 sequence (P35372 whole entry): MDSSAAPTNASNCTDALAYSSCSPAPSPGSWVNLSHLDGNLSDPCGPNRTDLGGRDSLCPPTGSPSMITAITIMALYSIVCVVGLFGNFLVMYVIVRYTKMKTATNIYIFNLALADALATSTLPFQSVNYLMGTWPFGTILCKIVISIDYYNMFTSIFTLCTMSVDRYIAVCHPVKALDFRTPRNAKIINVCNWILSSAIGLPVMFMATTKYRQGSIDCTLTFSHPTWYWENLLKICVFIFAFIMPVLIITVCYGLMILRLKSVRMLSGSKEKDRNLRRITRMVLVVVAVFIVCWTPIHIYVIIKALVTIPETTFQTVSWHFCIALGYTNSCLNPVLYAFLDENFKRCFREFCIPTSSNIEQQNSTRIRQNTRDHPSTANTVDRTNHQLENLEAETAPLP
T3 sequence (P41145 whole entry): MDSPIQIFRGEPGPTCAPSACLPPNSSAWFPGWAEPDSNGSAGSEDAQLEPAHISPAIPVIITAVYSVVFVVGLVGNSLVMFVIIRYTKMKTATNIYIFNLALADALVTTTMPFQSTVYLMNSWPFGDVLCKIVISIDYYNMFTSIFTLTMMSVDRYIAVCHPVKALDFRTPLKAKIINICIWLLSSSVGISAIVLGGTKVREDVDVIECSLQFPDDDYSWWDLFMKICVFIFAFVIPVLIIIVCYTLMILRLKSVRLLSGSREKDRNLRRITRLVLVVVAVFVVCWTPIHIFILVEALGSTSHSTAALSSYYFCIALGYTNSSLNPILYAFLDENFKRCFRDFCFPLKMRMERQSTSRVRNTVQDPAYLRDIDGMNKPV

Row | Compound | Kb [1] [nM] | Kb [2] [nM] | Kb [3] [nM]
1 | CC(C)CCNCc1ccc2c(c1)CCc1cc(C(N)=O)ccc1O2 [Example 1, 8-[(3-Methyl-butylamino)-methyl]-10,11-dihydro-dibenzo[b,f]oxepine-2-carboxilic acid amide] | 1.2 | 11 | 6.1
2 | CC(C)CNCc1ccc2c(c1)CCc1cc(C(N)=O)ccc1O2 [Example 2, 8-(Isobutylamino-methyl)-10,11-dihydro-dibenzo[b,f]oxepine-2-carboxylic acid amide] | 12 |  | 29.8
3 | CC(C)CCCNCc1ccc2c(c1)CCc1cc(C(N)=O)ccc1O2 [Example 3, 8-[(4-Methyl-pentylamino)-methyl]-10,11-dihydro-dibenzo[b,f]oxepine-2-carboxylic acid amide] | 0.8 | 7.4 | 6.5
4 | NC(=O)c1ccc2c(c1)CCc1cc(CNCCc3cccs3)ccc1O2 [Example 4, 8-[(2-Thiophen-2-yl-ethylamino)-methyl]-10,11-dihydro-dibenzo[b,f]oxepine-2-carboxylic acid amide] | 0.9 | 7.1 | 12.6
5 | CCCCCNCc1ccc2c(c1)CCc1cc(C(N)=O)ccc1O2 [Example 5, 8-Pentylaminomethyl-10,11-dihydro-dibenzo[b,f]oxepine-2-carboxylic acid amide] | 1.7 |  | 4.9
6 | CCCCCCNCc1ccc2c(c1)CCc1cc(C(N)=O)ccc1O2 [Example 6, 8-Hexylaminomethyl-10,11-dihydro-dibenzo[b,f]oxepine-2-carboxylic acid amide] | 0.7 | 10.3 | 4.4
7 | NC(=O)c1ccc2c(c1)CCc1cc(CNCCC3CCOCC3)ccc1O2 [Example 12, 8-{[2-(Tetrahydro-pyran-4-yl)-ethylamino]-methyl}-10,11-dihydro-dibenzo[b,f]oxepine-2-carboxylic acid amide] | 0.7 | 2.1 | 2.2
8 | CC(C)(C)CCNCc1ccc2c(c1)CCc1cc(C(N)=O)ccc1O2 [Example 13, 8-[(3,3-Dimethyl-butylamino)-methyl]-10,11-dihydro-dibenzo[b,f]oxepine-2-carboxylic acid amide] | 4 | 14.4 | 12.1
9 | NC(=O)c1ccc2c(c1)CCc1cc(CNCCC3CCCC3)ccc1O2 [Example 14, 8-[(2-Cyclopentyl-ethylamino)-methyl]-10,11-dihydro-dibenzo[b,f]oxepine-2-carboxylic acid amide] | 0.6 | 7 | 8.6
10 | CCOCCCNCc1ccc2c(c1)CCc1cc(C(N)=O)ccc1O2 [Example 17, 8-[(3-Ethoxy-propylamino)-methyl]-10,11-dihydro-dibenzo[b,f]oxepine-2-carboxylic acid amide] | 2.1 | 26.7 | 25.7
